Source: US11103510B2, “JAK1 pathway inhibitors for the treatment of cytokine-related disorders” (Incyte Corporation, priority 2018, dated 2021)
pIC50: −log10 of the molar value.

What was measured:
[1] = system: Con A-induced cytokine release syndrome (CRS) in BALB/c mice; test: Concanavalin A induced cytokine release syndrome in BALB/c mice; format: in vivo; conditions: plasma 2 h after Con A
From the text: Concanavalin A (Con A) is a selective T lymphocyte mitogen resulting in broad inflammatory cytokine release and proliferation of CD4 and CD8 T-cells. Injection of Con-A has been shown in the literature to induce cytokine release syndrome and serves as a model with which to test the efficacy of cytokine release syndrome therapies (Gantner, F. at al. Hepatology, 1995, 21, 190-198). The mitogen response is dependent on expression of the T-cell receptor.
In particular, this study tests the ability of a selective JAK1 inhibitor (e.g., Compound 1, Table 1) to reduce or ameliorate Con A-induced cytokine release syndrome (CRS) in BALB/c mice. A total of forty (40) BALB/c mice were used for this one day study. Animals were weighed prior to test article dosing, and monitored for the duration of the experiment. On day 0, Sixty (60) minutes prior to Con A administration, vehicle (0.5% methylcellulose) or Compound 1 (60 and 120 mg/kg) was given in a single dose via oral gavage (PO) to animals in groups 2-4 as detailed in Table 2A. Group 1 served as naïve controls and were not treated. Following the […] pre-treatment with vehicle or Compound 1, animals in Groups 2-4 were administered 20 mg/kg of Con A via intravenous injection (IV) in order to induce CRS. All animals were euthanized via CO2 inhalation two hours after Con A administration. Whole blood was collected via cardiac puncture into K2EDTA tubes and stored on ice until plasma processing occurs. Plasma was collected and stored at −80° C. until cytokine multiplex was performed.
Animals were weighed and Con-A dose (20 mg/kg) calculated.
Vehicle and Compound 1 were prepared at corresponding doses.
On day 0, animals were dosed with vehicle or Compound 1, as in Table 2A. Group 1 served as the naïve controls and were not treated. Group 2 received a single dose of vehicle (0.5% methylcellulose) via PO at 0.1 mL/20 g. Group 3 received a single dose of 60 mg/kg Compound 1 via PO at 0.1 mL/20 g. Group 4 received a single dose of 120 mg/kg Compound 1 via PO at 0.1 mL/20 g.
Sixty (60) minutes after test article administration, Con-A was administered via IV injection to Groups 2-4. Each animal in Groups 2-4 received 20 mg/kg of Con-A in 0.2 mL.
After the administration of Con-A, animals were closely monitored for signs of distress due to the resulting systemic inflammatory response.
Two hours after Con-A administration all animals were euthanized by CO2 inhalation.
Upon sacrifice, whole blood was collected from each animal via cardiac puncture into K2EDTA tubes. The blood was centrifuged and the plasma collected in cryovials. The plasma was frozen and stored at −80° C. for the downstream cytokine multiplex assay.
Plasma samples are thawed on ice and used for a cytokine multiplex according to the manufacturer's protocol (ThermoFisher).
An unpaired one-way analysis of variance (ANOVA) incorporating Sidak's multiple test comparison was performed using GraphPad Prism (version 4.00; GraphPad Software, San Diego Calif., USA). A value of p<0.05 was considered significant.

[2] = system: anti-CD3 antibody-induced cytokine release syndrome (CRS) in BALB/c mice; test: Anti-CD3 antibody-induced cytokine release syndrome in BALB/c mice; format: in vivo; conditions: 60 and 120 mg/kg PO 1 h before anti-CD3 (10 μg IV); plasma 1.5 h after anti-CD3; FIG. 1
From the text: JAK1 pathway inhibitors can be tested for efficacy against CRS according to an in vivo assay described in Ferran, C. et al. Clin. Exp. Immunol. 1991, 86, 537-543. Specifically, this study can test the ability of a compound to reduce or ameliorate anti-CD3 antibody-induced cytokine release syndrome (CRS) in BALB/c mice. The antibody, clone 145-2C11, is an immunoglobin G (IgG) hamster MoAb that is specific for the ε chain of the CD3 murine molecule (Léo, O. et al., Proc. Natl. Acad. Sci. USA, 1987, […], 1374). Treatment with 145-2C11 induces high affinity IL-2 receptors at the surface of spleen T-cells and results in a release of some cytokines such as tumor necrosis factor (TNF-α), IL-2, IL-3, IL-6, and interferon-gamma (IFN-γ) (Ferran, et al. Eur. J. Immunol. 1990, 20, 509-515 and Algre, M. et al., Eur. J. Immunol., 1990, 707). […]
The main objective of this study was to test the ability of a JAK1 pathway inhibitor (e.g., Compound 1) to reduce or ameliorate anti-CD3 antibody-induced cytokine release syndrome (CRS) in BALB/c mice. […] Animals were weighed prior to test article dosing, and monitored for the duration of the experiment. […]
After the administration of the anti-CD3 antibody, animals were closely monitored for signs of distress due to the resulting systemic inflammatory response. […]

[3] = target: human JAK2 (a.a. 828-1132) (Homo sapiens (Human), UniProt O60674); test: In vitro JAK kinase assay (HTRF), JAK2, for JAK2/JAK1 ratio; format: biochemical; conditions: IC50 ratio, 1 mM ATP
human JAK2 (a.a. 828-1132), sequence (O60674 828-1132): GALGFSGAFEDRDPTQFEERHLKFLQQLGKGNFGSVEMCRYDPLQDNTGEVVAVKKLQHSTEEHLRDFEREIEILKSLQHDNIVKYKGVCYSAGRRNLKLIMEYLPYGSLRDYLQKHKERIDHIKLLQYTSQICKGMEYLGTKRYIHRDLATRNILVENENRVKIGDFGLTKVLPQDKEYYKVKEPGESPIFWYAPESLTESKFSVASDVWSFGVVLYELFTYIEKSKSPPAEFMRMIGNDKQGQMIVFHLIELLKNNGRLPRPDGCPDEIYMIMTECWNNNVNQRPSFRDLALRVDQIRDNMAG
Procedure: (§1) The catalytic activity of JAK1, JAK2 or JAK3 was assayed by measuring the phosphorylation of a biotinylated peptide. The phosphorylated peptide was detected by homogenous time resolved fluorescence (HTRF). […] Reactions are carried out at room temperature for 1 hour and then stopped with 20 μL 45 mM EDTA, 300 nM SA-APC, 6 nM Eu-Py20 in assay buffer (Perkin Elmer, Boston, Mass.). Binding to the Europium labeled antibody takes place for 40 minutes and HTRF signal was measured on a Fusion plate reader (Perkin Elmer, Boston, Mass.).

[4] = target: human JAK1 (a.a. 837-1142) (Homo sapiens, UniProt P23458); test: In vitro JAK kinase assay (HTRF), JAK1; format: biochemical; conditions: 1 mM ATP
Procedure: as §1

JAK2/JAK1 [3] | pIC50 [4] | Compound | IL-6 concentrations within the blood compartment ([1]; 60 and 120 mg/kg PO 60 min before Con A (20 mg/kg IV), FIG. 2A) | IFNγ (T-cell derived cytokine) ([1]; 60 and 120 mg/kg PO before Con A, FIG. 2B) | GM-CSF (T-cell derived cytokine) ([1]; 60 and 120 mg/kg PO before Con A, FIG. 2C) | IL-12 (monocyte and/or macrophage derived cytokine) ([1]; 60 and 120 mg/kg PO before Con A, FIG. 3A) | IL-1β (monocyte and/or macrophage derived cytokine) ([1]; 60 and 120 mg/kg PO before Con A, FIG. 3B) | IL-18 (monocyte and/or macrophage derived cytokine) ([1]; 60 and 120 mg/kg PO before Con A, FIG. 3C) | IL-5 ([1]; 60 and 120 mg/kg PO before Con A, FIG. 4) | IL-6 concentrations within the blood compartment [2]
>10 | > 8.00 | N#CCC1(n2cc(-c3ncnc4[nH]ccc34)cn2)CN(C2CCN(C(=O)c3ccnc(C(F)(F)F)c3F)CC2)C1 [Compound 1, {1-{1-[3-Fluoro-2-(trifluoromethyl)isonicotinoyl]piperidin-4-yl}-3-[4-(7H-pyrrolo[2,3-d]pyrimidin-4-yl)-1H-pyrazol-1-yl]azetidin-3-yl}acetonitrile] | dose-dependently inhibited | significantly inhibited | significantly inhibited | Statistically significant dose-dependent IL-12 reduction | trends for treatment effect | trends for treatment effect | unaffected | dose-dependently inhibited
>10 | > 8.00 | N#CCC1(n2cc(-c3ncnc4[nH]ccc34)cn2)CN(C2CCN(C(=O)Nc3ccc(F)cc3C(F)(F)F)CC2)C1 [Compound 2, 4-{3-(Cyanomethyl)-3-[4-(7H-pyrrolo[2,3-d]pyrimidin-4-yl)-1H-pyrazol-1-yl]azetidin-1-yl}-N-[4-fluoro-2-(trifluoromethyl)phenyl]piperidine-1-carboxamide] | – | – | – | – | – | – | – | –
>10 | > 8.00 | N#CCC1(n2cc(-c3ncnc4[nH]ccc34)cn2)CN(C2CCN(C(=O)c3ccnc(C(F)(F)F)n3)CC2)C1 [Compound 3, [3-[4-(7H-pyrrolo[2,3-d]pyrimidin-4-yl)-1H-pyrazol-1-yl]-1-(1-{[2-(trifluoromethyl)pyrimidin-4-yl]carbonyl}piperidin-4-yl)azetidin-3-yl]acetonitrile] | – | – | – | – | – | – | – | –
>10 | > 8.00 | C[C@@H](O)CNCc1cc(OC2CCN([C@H]3C[C@](CC#N)(n4cc(-c5ncnc6[nH]ccc56)cn4)C3)CC2)nc(C(F)(F)F)c1 [Compound 24, {trans-3-(4-{[4-({[(2R)-2-hydroxypropyl]amino}methyl)-6-(trifluoromethyl)pyridin-2-yl]oxy}piperidin-1-yl)-1-[4-(7H-pyrrolo[2,3-d]pyrimidin-4-yl)-1H-pyrazol-1-yl]cyclobutyl}acetonitrile] | – | – | – | – | – | – | – | –
>10 | > 8.00 | C[C@@H](CO)NCc1cc(OC2CCN([C@H]3C[C@](CC#N)(n4cc(-c5ncnc6[nH]ccc56)cn4)C3)CC2)nc(C(F)(F)F)c1 [Compound 23, {trans-3-(4-{[4-({[(1S)-2-hydroxy-1-methylethyl]amino}methyl)-6-(trifluoromethyl)pyridin-2-yl]oxy}piperidin-1-yl)-1-[4-(7H-pyrrolo[2,3-d]pyrimidin-4-yl)-1H-pyrazol-1-yl]cyclobutyl}acetonitrile] | – | – | – | – | – | – | – | –
